Experiment: Photoactivated welding of rabbit Achilles tendon pieces, tensile strength by tensiometer
Details: mixture of 1.2 M DPD and 1.2 M DEDA in DMSO between two tendon pieces, 2 W, 500 sec (1,000 J)
Method: A rabbit Achilles tendon, previously stored at −70° C., was dissected from the remaining muscle, cleaned of fascia and muscle, and divided in half along its length.
One tendon piece was placed diagonally on a fused silica (UV transparent) glass slide and several drops of the mixture was placed in the center of the tendon piece. The other tendon piece was placed on top, forming an “X” shape with the mixture in between the two pieces at their intersection. Another identical slide was placed on top and light pressure was applied to the two slides.
The tendons and slides were then placed beneath a liquid light guide that delivered light from a filtered mercury-arc light source (320-500 nm, 2 W) and exposed for 500 sec (1,000 J).
After light exposure, the tendons were removed from the slide and placed on an illuminated grid beneath a CCD camera with a macro lens. An image of the overlapped (i.e. “welded”) area was digitized and stored. Measurement of the overlapped area was made using standard computer software.
The welded tendon was then placed in a tensiometer to measure tensile strength. One tendon end was clamped and attached to a strain gauge, while the opposite end of the other tendon clamped to a block moved by a lead screw.
The maximum force tolerated by the bonded tendon before breaking was divided by the bonded area to calculate the Maximum Stress in Newtons/cm^2.

## [N-]=[N+]=CC(=O)C(=O)NCCOCCOCCNC(=O)C(=O)C=[N+]=[N-] [DPD, N,N′-bis(3-diazapynivoyl)-2,2′-(ethylenedioxy)bis(ethylamine)]
320-500 nm
  Observation of tendon welding after light exposure: welded together
Filtered mercury-arc light 320-500 nm
  Maximum Stress (maximum force tolerated by the bonded tendon before breaking divided by the bonded area): 31.7 N/cm^2
